Data published in patent publication US10214546B2, “Btk inhibitors” (MERCK SHARP & DOHME CORP., priority 2014, dated 2019).
pIC50: −log10 of the molar value. Where two headings read alike, the source gives them in different places.

Legend:
[1] = biological target: BTK enzyme (recombinant full-length BTK, hBTK) (Homo sapiens (Human), UniProt Q06187); experiment: BTK enzymatic activity LANCE TR-FRET assay; type: biochemical; conditions: 50 pM hBTK, 25 μM ATP, 2 μM biotin-A5-peptide; compound range 1 μM to 0.017 nM; read-out: BTK binding IC50
Sequence of BTK enzyme (recombinant full-length BTK, hBTK) (Q06187 whole entry): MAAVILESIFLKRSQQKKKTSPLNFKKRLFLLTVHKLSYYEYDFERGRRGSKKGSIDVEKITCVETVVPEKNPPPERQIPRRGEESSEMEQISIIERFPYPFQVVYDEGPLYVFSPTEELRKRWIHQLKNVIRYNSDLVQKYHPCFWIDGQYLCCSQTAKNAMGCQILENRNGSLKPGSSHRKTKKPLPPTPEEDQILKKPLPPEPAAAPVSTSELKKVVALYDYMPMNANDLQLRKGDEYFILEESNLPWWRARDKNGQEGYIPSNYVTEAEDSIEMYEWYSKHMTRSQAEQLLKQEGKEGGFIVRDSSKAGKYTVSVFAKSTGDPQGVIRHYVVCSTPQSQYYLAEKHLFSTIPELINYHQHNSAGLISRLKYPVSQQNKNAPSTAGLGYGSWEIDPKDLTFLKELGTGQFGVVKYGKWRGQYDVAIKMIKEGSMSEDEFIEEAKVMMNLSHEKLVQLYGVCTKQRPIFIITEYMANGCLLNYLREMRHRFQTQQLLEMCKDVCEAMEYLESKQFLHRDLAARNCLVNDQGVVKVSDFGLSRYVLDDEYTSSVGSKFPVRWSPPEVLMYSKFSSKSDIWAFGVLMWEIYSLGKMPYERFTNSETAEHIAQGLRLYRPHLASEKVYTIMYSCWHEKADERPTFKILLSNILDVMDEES

[2] = tested on: adenosine uptake into HeLa cells; experiment: [3H]Adenosine uptake assay in HeLa cells; type: cell-based; conditions: [3H]adenosine accumulation in HeLa cells, compound range 10 μM to 0.032 nM, read-out: ADU inhibition IC50
Outline: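 HeLa cells in HBSS + 5% FBS were preincubated 30 min at ambient temperature with compound (ten-point 1:3 series, 10 µM–[…] final), then given [3H]adenosine (added as a 500 nM solution) for 60 min. Cell-associated label was read by scintillating-plate proximity counting; IC50 from 4-parameter fit of cps versus log concentration.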

pIC50 [1]	pIC50 ([2]; Homo sapiens, HeLa)	pIC50 [2]	Structure (SMILES)
7.19	6.36	–	CC(F)(F)c1cccc([C@@](C)(O)c2ccc(-c3nc([C@@H]4CC[C@H]5CCC(=O)N5C4)n4ccnc(N)c34)cc2)c1 [Example 131, (6R,8aS)-6-[8-amino-1-(4-{(1S)-1-[3-(1,1-difluoroethyl)phenyl]-1-hydroxyethyl}phenyl)imidazo[1,5-a]pyrazin-3-yl]hexahydroindolizin-3(2H)-one]
6.23	6.05	–	C[C@](O)(c1ccc(-c2nc([C@@H]3CC[C@H]4CCC(=O)N4C3)n3ccnc(N)c23)cc1)c1cccc(OC(F)(F)F)c1 [Example 56, (6R,8aS)-6-[8-amino-1-(4-{(1S)-1-hydroxy-1-[3-(trifluoromethoxy)phenyl]ethyl}phenyl)imidazo [1,5-a]pyrazin-3-yl]hexahydroindolizin-3(2H)-one]
8.19	6.17	–	Cc1cccc([C@@](C)(O)c2ccc(-c3nc([C@@H]4CC[C@H]5CCC(=O)N5C4)n4ccnc(N)c34)cc2)c1 [Example 53, (6R,8aS)-6-(8-amino-1-{4-[(1S)-1-hydroxy-1-(3-methylphenyl)ethyl]phenyl}imidazo[1,5-a]pyrazin-3-yl)hexahydroindolizin-3(2H)-one]
6.00	6.16	–	C[C@](O)(c1cccc(C(F)(F)F)c1)c1ccc(-c2nc([C@@H]3CC[C@H]4CCC(=O)N4C3)n3ccnc(N)c23)c(C(F)F)c1 [Example 81, (6R,8aS)-6-{8-amino-1-[2-(difluoromethyl)-4-{(1R)-1-hydroxy-1-[3-(trifluoromethyl)phenyl]ethyl}phenyl]imidazo [1,5-a]pyrazin-3-yl}hexahydroindolizin-3(2H)-one]
6.70	6.10	–	C[C@](O)(c1ccc(-c2nc([C@@H]3CC[C@H]4CCC(=O)N4C3)n3ccnc(N)c23)cc1)c1cccc(OC2CC2)c1 [Example 94, (6R,8aS)-6-[8-amino-1-(4-{(1S)-1-[3-(cyclopropyloxy)phenyl]-1-hydroxyethyl}phenyl)imidazo[1,5-a]pyrazin-3-yl]hexahydroindolizin-3(2H)-one]
6.00	5.62	–	C[C@](O)(c1ccc(-c2nc([C@@H]3CC[C@H]4CCC(=O)N4C3)n3ccnc(N)c23)cc1)c1cccc(C#N)c1 [Example 84, 3-[(1S)-1-(4-{8-amino-3-[(6R,8aS)-3-oxooctahydroindolizin-6-yl]imidazo[1,5-a]pyrazin-1-yl}phenyl)-1-hydroxyethyl]benzonitrile]
8.55	5.88	–	Nc1nccn2c([C@@H]3CC[C@H]4CCC(=O)N4C3)nc(-c3ccc(C(O)(c4ccccc4)C(F)(F)F)cc3F)c12 (stereo partly drawn) [Example 30, (6R,8aS)-6-{8-amino-1-[2-fluoro-4-(2,2,2-trifluoro-1-hydroxy-1-phenylethyl)phenyl)imidazo[1,5-a]pyrazin-3-yl}hexahydroindolizin-3(2H)-one]
8.55	5.58	–	CC1(C)OC(=O)N2C[C@H](c3nc(-c4ccc([C@@](C)(O)c5cccc(C(F)F)c5)cc4)c4c(N)nccn34)OC[C@H]21 [Example 187, (6R,8aS)-6-[8-amino-1-(4-{(1R)-1-[3-(difluoromethyl)phenyl]-1-hydroxyethyl}phenyl)imidazo[1,5-a]pyrazin-3-yl]-1,1-dimethyltetrahydro-1H-[1,3]oxazolo[4.3-c][1,4]oxazin-3-one]
9.06	5.48	–	C[C@@](O)(c1ccc(-c2nc([C@@H]3CC[C@H]4CCC(=O)N4C3)n3ccnc(N)c23)cc1)c1cccc(OC(F)(F)F)c1 [Example 57, (6R,8aS)-6-[8-amino-1-(4-{(1R)-1-hydroxy-1-[3-(trifluoromethoxy)phenyl]ethyl}phenyl)imidazo [1,5-a]pyrazin-3-yl]hexahydroindolizin-3(2H)-one]
6.74	5.69	–	Cc1ccccc1[C@@](C)(O)c1ccc(-c2nc([C@@H]3CC[C@H]4CCC(=O)N4C3)n3ccnc(N)c23)cc1 [Example 47, (6R,8aS)-6-(8-amino-1-{4-[(1S)-1-hydroxy-1-(2-methylphenyl)ethyl]phenyl}imidazo[1,5-a]pyrazin-3-yl)hexahydroindolizin-3(2H)-one]
6.00	5.46	–	CO[C@](C)(c1ccc(-c2nc([C@@H]3CC[C@H]4CCC(=O)N4C3)n3ccnc(N)c23)cc1)c1cccc(C(F)(F)F)c1 [Example 89, (6R,8aS)-6-[8-amino-1-(4-{(1R)-1-methoxy-1-[3-(trifluoromethyl)phenyl]ethyl}phenyl)imidazo [1,5-a]pyrazin-3-yl]hexahydroindolizin-3(2H)-one]
6.59	5.27	–	C[C@@](O)(c1ccc(-c2nc([C@@H]3CC[C@@H]4[C@@H](C(F)(F)F)CC(=O)N4C3)n3ccnc(N)c23)cc1)c1cccc(C(F)(F)F)c1 [Example 172, (1S,6R,8aR)-6-[8-amino-1-(4-{(1R)-1-hydroxy-1-[3-(trifluoromethyl)phenyl]ethyl}phenyl)imidazo [1,5-a]pyrazin-3-yl]-1-(trifluoromethyl) hexahydroindolizin-3(2H)-one]
7.81	5.07	–	C[C@](O)(c1ccc(-c2nc([C@@H]3CC[C@H]4CCC(=O)N4C3)n3ccnc(N)c23)cc1)c1cccc(N2CCOCC2)c1 [Example 67, (6R,8aS)-6-(8-amino-1-{4-[(1S)-1-hydroxy-1-(3-morpholin-4-ylphenyl)ethyl]phenyl}imidazo[1,5-a]pyrazin-3-yl)hexahydroindolizin-3(2H)-one]
6.00	6.01	–	C[C@](O)(c1ccc(-c2nc([C@@H]3CC[C@H]4CCC(=O)N4C3)n3ccnc(N)c23)cc1)c1cncc(C(F)(F)F)c1 [Example 135, (6R,8aS)-6-[8-amino-1-(4-{(1S)-1-hydroxy-1-[5-(trifluoromethyl)pyridin-3-yl]ethyl}phenyl)imidazo [1,5-a]pyrazin-3-yl]hexahydroindolizin-3(2H)-one]
8.82	5.86	–	C[C@@](O)(c1ccc(-c2nc([C@@H]3CC[C@H]4COCC(=O)N4C3)n3c(Cl)cnc(N)c23)cc1)c1cccc(C(F)(F)F)c1 [Example 175, (7R,9aS)-7-(8-amino-5-chloro-1-(4-{(1R)-1-hydroxy-1-[3-(trifluoromethyl)phenyl]ethyl}phenyl)imidazo [1,5-a]pyrazin-3-yl]hexahydropyrido[2,1-c][1,4]oxazin-4(3H)-one]
7.35	6.05	–	CC(C)(c1cccc([C@@](C)(O)c2ccc(-c3nc([C@@H]4CC[C@H]5CCC(=O)N5C4)n4ccnc(N)c34)cc2)c1)C(F)(F)F [Example 109, (6R,8aS)-6-[8-amino-1-(4-{(1S)-1-hydroxy-1-[3-(2,2,2-trifluoro-1,1-dimethylethyl)phenyl]ethyl}phenyl)imidazo[1,5-a]pyrazin-3-yl]hexahydroindolizin-3(2H)-one]
8.77	6.06	–	CC(O)(c1ccc(-c2nc([C@@H]3CC[C@H]4CCC(=O)N4C3)n3ccnc(N)c23)cc1)c1cccc(C(F)(F)F)c1 (stereo partly drawn) [Example 13, (6R,8aS)-6-(8-amino-1-(4-(1-hydroxy-1-(3-(trifluoromethyl)phenyl)ethyl)phenyl)imidazo[1,5-a]pyrazin-3-yl)hexahydroindolizin-3(2H)-one]
7.41	5.53	–	C[C@@](O)(c1ccc(-c2nc([C@@H]3CC[C@H]4CCC(=O)N4C3)n3ccnc(N)c23)cc1)c1cccc(-n2ccnc2)c1 [Example 152, (6R,8aS)-6-[8-amino-1-(4-{(1R)-1-hydroxy-1-[3-(1H-imidazol-1-yl)phenyl]ethyl}phenyl)imidazo[1,5-a]pyrazin-3-yl]hexahydroindolizin-3(2H)-one]
7.51	–	5.67	C[C@](O)(c1ccc(-c2nc([C@@H]3CC[C@H]4CCC(=O)N4C3)n3ccnc(N)c23)cc1)c1ccc(C(F)(F)F)s1 [Example 113, (6R,8aS)-6-[8-amino-1-(4-{(1S)-1-hydroxy-1-[5-(trifluoromethyl)thiophen-2-yl]ethyl}phenyl)imidazo [1,5-a]pyrazin-3-yl]hexahydroindolizin-3(2H)-one]
6.41	5.75	–	CC(O)(c1ccc(-c2nc([C@@H]3CC[C@H]4CCC(=O)N4C3)n3ccnc(N)c23)cc1)c1ccc(C(F)(F)F)cc1 (stereo partly drawn) [Example 15, (6R,8aS)-6-[8-amino-1-(4-{1-hydroxy-1-[4-(trifluoromethyl)phenyl]ethyl}phenyl)imidazo[1,5-a]pyrazin-3-yl]hexahydroindolizin-3(2H)-one]
9.72	5.29	–	C[C@@](O)(c1ccc(-c2nc([C@@H]3CC[C@H]4CCC(=O)N4C3)n3ccnc(N)c23)cc1)c1cccc(C(F)F)c1 [Example 71, (6R,8aS)-6-[8-amino-1-(4-{(1R)-1-[3-(difluoromethyl)phenyl]-1-hydroxyethyl}phenyl)imidazo[1,5-a]pyrazin-3-yl]hexahydroindolizin-3(2H)-one]
7.90	–	5.84	Cc1ccc(C(F)(F)F)cc1C(O)c1ccc(-c2nc([C@@H]3CC[C@H]4CCC(=O)N4C3)n3ccnc(N)c23)cc1 (stereo partly drawn) [Example 130, (6R,8aS)-6-[8-amino-1-(4-{hydroxy[2-methyl-5-(trifluoromethyl)phenyl]methyl}phenyl)imidazo [1,5-a]pyrazin-3-yl]hexahydroindolizin-3(2H)-one]
7.03	5.70	–	COc1cc([C@@](C)(O)c2cccc(C(F)(F)F)c2)ccc1-c1nc([C@@H]2CC[C@H]3CCC(=O)N3C2)n2ccnc(N)c12 [Example 141, (6R,8aS)-6-[8-amino-1-(4-{(1S)-1-hydroxy-1-[3-(trifluoromethyl)phenyl]ethyl}-2-methoxyphenyl)imidazo [1,5-a]pyrazin-3-yl]hexahydroindolizin-3(2H)-one]
